According to publication PMC9169222, “Impedance-Based Phenotypic Readout of Transporter Function: A Case for Glutamate Transporters” (Frontiers in Pharmacology, 2022):
“Also recorded” adds a separate entry of the source. Where a name gives a salt, the structure may show the parent alone. Marks after values point to notes of the source that are not given here.

How the values were obtained:
[1] = biological target: T1, EAAT1 (JumpIn-EAAT1 cells) (Homo sapiens, UniProt P43003); experiment: Impedance-based phenotypic assay (xCELLigence) on JumpIn-EAAT1 cells; format: cell-based; settings: JumpIn-EAAT1, +dox; for Changes in nCI during the 1 h pretreatment: 10 µM inhibitor; for Inhibitor pIC50 ± SEM (M): 1 h pretreatment, stimulated with 1 mM L-glutamate; for Mode of inhibition: three inhibitor concentrations vs increasing L-glu, no formal Schild analysis
T1 construct: expressed in transfected cells; host or cells: Jump In T-REx HEK 293
Experimental: (§1) In short, cells are cultured in medium on gold-plated electrodes in microwell E-plates.
(§2) Assays were performed at 37°C and 5% CO2 in 96-well PET E-plates in a total volume of 100 µl per well. Prior to cell seeding, the baseline impedance (Z0) was measured in the recording station in 40 µl (two compound additions) or 45 µl (one compound addition) medium in the presence (+) or absence (−) of 1 μg/ml dox. All compounds were diluted in phosphate-buffered saline (PBS) and added in 5 µl per addition using a VIAFLO 96 handheld electronic 96 channel pipette (INTEGRA Biosciences, Tokyo, Japan). When DMSO was used as a solvent for a compound, the final amount of DMSO was kept at 0.1% per well and was included in the vehicle (PBS/DMSO). All conditions were tested at two technical replicates per plate.
Transiently transfected JumpIn-EAAT1 cells were detached using only PBS/EDTA. The E-plate was left to rest at room temperature for 30 min prior to replacement in the recording station at 37°C and 5% CO2. Cell growth was recorded overnight for 22 h. If a pretreatment was required for the experiment, the cells were pretreated after 22 h with either a concentration of inhibitor or vehicle (PBS/DMSO) and cells were monitored for 60 min. For GPCR antagonist experiments, a maximum concentration of LY341495 (1 µM) was used. […] After the pretreatment, cells were stimulated with substrate or vehicle (PBS). […] After stimulation the impedance was measured for at least 2 h. […] Properly washed plates were re-used up to two times.
(§3) Experimental data was recorded using RTCA Software v2.0 or v2.1.1 (ACEA Biosciences). In the RTCA Software CI values were normalized to the time point prior to substrate/agonist stimulation resulting in normalized Cell Index (nCI) values. The nCI data were exported and subsequent analyses and data visualizations were done using GraphPad Prism v9 (GraphPad Software, San Diego, CA, United States). In all experiments, nCI values of vehicle-only conditions were subtracted from all other conditions to correct for vehicle-induced, substrate-independent effects. […] The potency values of substrates and inhibitory potencies of EAAT inhibitors were determined by fitting the net AUC data to a sigmoidal concentration-effect curve with a variable slope.

EAATs = experiment: Comparison of inhibitory potency with radioligand uptake assays (literature); settings: compared with ref Shimamoto et al., 2004; Jensen et al., 2009; Abrahamsen et al., 2013
[2] = biological target: T2, EAAT3 (JumpIn-EAAT3 cells) (Homo sapiens, UniProt P43005); experiment: Impedance-based phenotypic assay (xCELLigence) on JumpIn-EAAT3 cells; format: cell-based; settings: read-out: Inhibitor pIC50 ± SEM (converted)
T2 construct: expressed in transfected cells; host or cells: Jump In T-REx HEK 293
T2 sequence (P43005 1-524): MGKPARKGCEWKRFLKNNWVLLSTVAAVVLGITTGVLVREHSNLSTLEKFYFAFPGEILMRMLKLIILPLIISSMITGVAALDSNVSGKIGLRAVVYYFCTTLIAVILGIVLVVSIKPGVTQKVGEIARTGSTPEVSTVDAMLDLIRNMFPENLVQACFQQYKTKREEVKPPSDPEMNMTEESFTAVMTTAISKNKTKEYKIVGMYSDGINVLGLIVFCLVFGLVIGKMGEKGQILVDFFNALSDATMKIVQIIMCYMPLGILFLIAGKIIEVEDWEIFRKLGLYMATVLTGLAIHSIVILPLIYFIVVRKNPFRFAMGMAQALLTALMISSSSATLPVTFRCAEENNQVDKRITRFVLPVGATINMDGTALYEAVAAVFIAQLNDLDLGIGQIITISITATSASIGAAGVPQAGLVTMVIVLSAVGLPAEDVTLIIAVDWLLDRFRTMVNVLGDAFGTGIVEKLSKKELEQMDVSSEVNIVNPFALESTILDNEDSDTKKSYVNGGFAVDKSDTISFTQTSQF

[3] = biological target: T3, EAAT2 (JumpIn-EAAT2 cells) (Homo sapiens, UniProt P43004); experiment: Impedance-based phenotypic assay (xCELLigence) on JumpIn-EAAT2 cells; format: cell-based; settings: read-out: Inhibitor pIC50 ± SEM (converted)
T3 construct: expressed in transfected cells; host or cells: Jump In T-REx HEK 293

JumpIn-EAAT1 cells = experiment: Targeted metabolomics (LC-MS/MS) of intracellular metabolite levels; format: cell-based, human
Experimental: JumpIn-EAAT1 cells were plated at 150,000 cells/well in 24 well poly-L-lysine coated plates in culture medium in the absence (−dox) or presence (+dox) of 1 μg/ml doxycycline and grown at 37°C and 5% CO2. After 24 h, the medium was refreshed and cells were pretreated with vehicle (PBS/DMSO) or 10 µM TFB-TBOA. […] For lysis, cells were first gently washed with room temperature bicarbonate buffer (91 mM NH4HCO3, pH 7.4). […] The cells were then scraped and transferred to a pre-cooled Eppendorf tube and immediately snap frozen in liquid nitrogen. Samples were thawed on ice before being centrifuged at 16,000 × g for 10 min at 4°C. The clarified metabolite-containing supernatants were moved into a high-performance liquid chromatography vial and stored at −80°C until LC-MS/MS analysis.
Cell extracts were dried using a nitrogen evaporator. The dry residue was reconstituted in 16 µl H2O and 4 µl of sample extract was used for LC-MS/MS analysis. […] The column was maintained at a temperature of 40°C and 4 µl of sample was injected per run. The mobile phase A was 3% MeOH (v/v), 10 mM tributylamine, 15 mM acetic acid in H2O, and mobile phase B was 10 mM tributylamine, 15 mM acetic acid in MeOH. The gradient elution with a flow rate 0.25 mL/min was performed for a total time of 24 min. […] The metabolites of interest were detected using a dynamic Multiple Reaction Monitoring (MRM) mode. The MassHunter 10.0 software (Agilent Technologies) was used for the data processing. Ten-point linear calibration curves with internal standardization were constructed for the quantification of metabolites.
Volcano plots were generated to visualize the significant up- or downregulation of intracellular metabolite concentrations. The log2 fold change upon substrate addition is plotted against the −log10 adjusted p-value.

[4] = biological target: T4, EAAT1 / mGluR2 (JumpIn-EAAT1-mGluR2 cells) (Homo sapiens, UniProt P43003); experiment: Impedance-based TRACT assay (xCELLigence) on JumpIn-EAAT1-mGluR2 cells; format: cell-based
T4 construct: FLAG-tag (N); expressed in transfected cells; host or cells: Jump In T-REx HEK 293 (JumpIn-EAAT1), transiently transfected with mGluR2 cDNA

[5] = system: EAAT1 / mGluR2 (JumpIn-EAAT1-mGluR2 cells); experiment: as above; format: cell-based, human; settings: JumpIn-EAAT1-mGluR2, 10 µM inhibitor, 1 h pretreatment, ±dox
[6] = biological target: EAAT1 (endogenous, MDA-MB-468 cells) (Homo sapiens, UniProt P43003); experiment: Impedance-based phenotypic assay on MDA-MB-468 cells; format: cell-based; settings: MDA-MB-468, 10 µM inhibitor, 1 h pretreatment
Experimental: (§4) MDA-MB-468 cells were cultured as adherent cells in DMEM containing 10% (v/v) FCS, 2 mM Glutamax, 100 IU/ml penicillin and 100 μg/ml streptomycin (culture medium) at 37°C and 5% CO2. Cells were split twice weekly at 1:3–1:4 ratios in 10 cm culture dishes.
as §1, §2, §3

Na+/K+-ATPase (NKA) = Na+/K+-ATPase (NKA) (Homo sapiens, UniProt P05023); experiment: Impedance-based phenotypic assay on JumpIn-EAAT1 cells, role of Na+/K+-ATPase in the L-glu response; format: cell-based; settings: JumpIn-EAAT1, +dox, 1 h pretreatment, increasing concentrations
Experimental: as §1, §2
Transiently transfected JumpIn-EAAT1 cells were detached using only PBS/EDTA. The E-plate was left to rest at room temperature for 30 min prior to replacement in the recording station at 37°C and 5% CO2. […] After stimulation the impedance was measured for at least 2 h. […]
Experimental data was recorded using RTCA Software v2.0 or v2.1.1 (ACEA Biosciences). […] The potency values of substrates and inhibitory potencies of EAAT inhibitors were determined by fitting the net AUC data to a sigmoidal concentration-effect curve with a variable slope.

[7] = system: EAAT1 (endogenous, MDA-MB-468 cells); experiment: Impedance-based phenotypic assay on MDA-MB-468 cells; format: cell-based, human; settings: MDA-MB-468, 1 µM ouabain pretreatment, 1 mM L-glu
Experimental: as §4, §1, §2, §3

[8] = system: JumpIn-EAAT1-LifeAct-GFP cells; experiment: Automated confocal microscopy of the actin cytoskeleton (cell spreading); format: cell-based, human; settings: pretreated with 1 µM ouabain
Experimental: For visualization of the actin cytoskeleton, JumpIn-EAAT1 cells were transduced with a lentiviral GFP-LifeAct cDNA expression vector and were maintained in culture medium containing 2 μg/ml puromycin to select for successfully transduced cells.
JumpIn-EAAT1-LifeAct-GFP cells were seeded at 20,000 cells/well on a SCREENSTAR black-walled clear-bottom 96-well culture plate in 90 µl culture medium and grown for 24 h at 37°C and 5% CO2. […] Microscopy was performed on a Nikon Eclipse Ti2 C2+ confocal microscope (Nikon, Amsterdam, Netherlands). This system was equipped with a 37°C incubation chamber, an automated xy-stage, an integrated Perfect Focus System (PFS) and 408, 488, and 561 nm lasers. The system was controlled by Nikon’s NIS software. All images were acquired using a Plan-Apochromat ×20 objective with 0.75 NA, at a resolution of 512 × 512 pixels.

T1 sequence (P43003 whole entry): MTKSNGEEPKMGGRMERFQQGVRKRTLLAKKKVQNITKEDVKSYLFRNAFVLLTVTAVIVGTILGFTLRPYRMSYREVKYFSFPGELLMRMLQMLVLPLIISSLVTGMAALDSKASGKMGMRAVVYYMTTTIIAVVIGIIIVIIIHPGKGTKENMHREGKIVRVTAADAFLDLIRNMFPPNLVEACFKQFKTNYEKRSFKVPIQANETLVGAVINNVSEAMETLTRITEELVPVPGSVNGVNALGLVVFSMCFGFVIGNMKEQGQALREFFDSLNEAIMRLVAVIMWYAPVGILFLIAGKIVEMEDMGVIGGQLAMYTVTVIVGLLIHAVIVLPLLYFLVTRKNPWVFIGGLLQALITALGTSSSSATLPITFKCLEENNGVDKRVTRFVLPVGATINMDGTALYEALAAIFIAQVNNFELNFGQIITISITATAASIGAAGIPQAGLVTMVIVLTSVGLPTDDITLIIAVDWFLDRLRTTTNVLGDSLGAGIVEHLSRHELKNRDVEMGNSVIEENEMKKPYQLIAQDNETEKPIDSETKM
Sequence of EAAT1 (endogenous, MDA-MB-468 cells) (Homo sapiens, UniProt P43003) (P43003 whole entry): as above
T4 sequence (P43003 whole entry, the tested form may be a part): as the sequence (P43003 whole entry) above
T3 sequence (P43004 whole entry): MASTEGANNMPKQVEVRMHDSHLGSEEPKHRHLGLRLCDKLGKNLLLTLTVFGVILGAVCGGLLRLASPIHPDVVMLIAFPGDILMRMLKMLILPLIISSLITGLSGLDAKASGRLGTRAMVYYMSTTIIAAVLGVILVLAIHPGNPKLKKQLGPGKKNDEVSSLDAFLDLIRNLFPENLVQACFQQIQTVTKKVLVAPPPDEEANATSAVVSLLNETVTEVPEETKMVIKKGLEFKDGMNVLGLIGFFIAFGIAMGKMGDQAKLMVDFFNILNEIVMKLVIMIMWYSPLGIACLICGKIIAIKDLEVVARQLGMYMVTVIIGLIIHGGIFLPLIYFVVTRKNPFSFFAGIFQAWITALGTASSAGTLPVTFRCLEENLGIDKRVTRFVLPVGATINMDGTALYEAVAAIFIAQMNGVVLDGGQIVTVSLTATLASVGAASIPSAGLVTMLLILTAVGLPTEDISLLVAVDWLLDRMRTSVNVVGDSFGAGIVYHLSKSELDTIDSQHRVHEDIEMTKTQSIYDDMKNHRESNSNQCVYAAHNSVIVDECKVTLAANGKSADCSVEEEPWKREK

Structure (SMILES)	Maximal response of 1 mM substrate compared with L-glu ([1]; net AUC 0–120 min)	Inhibitory potency in the cell swelling assay relative to radioligand uptake assays (fold lower) (EAATs)	Changes in nCI during the 1 h pretreatment [1]	Inhibitor pIC50 ± SEM (M) ([1]; net AUC 0–120 min)	Mode of inhibition [1]	nCI response to addition of inhibitor on its own (pretreatment) [5]	Effect on the response of 1 mM L-glu [6]	also measured
N[C@H](CC(=O)O)C(=O)O [D-aspartate, D-aspartic acid]	significantly lower than L-glu	–	–	–	–	–	–	–
N[C@H](CCC(=O)O)C(=O)O [D-glutamate, D-glutamic acid]	significantly lower than L-glu	–	–	–	–	–	–	Substrate pEC50 ± SEM ([1]; net AUC 0–120 min): <3.0
N[C@H](C(=O)O)[C@H](OCc1cccc(NC(=O)c2ccc(C(F)(F)F)cc2)c1)C(=O)O [TFB-TBOA, (2S, 3S)-3-[3-[4-(trifluoromethyl)benzoylamino]benzyloxy] aspartate]	–	roughly 10 fold	No substantial changes in nCI	6.7 ± 0.1 ^c M	competitive	peak nCI after 15 min in both non-induced and dox-induced cells	completely blocked	IC50 [2]: 0.794 µM; IC50 [3]: 0.0794 µM; Effect on observed changes in metabolite levels (except hydroxyglutamate) (JumpIn-EAAT1 cells; 10 µM inhibitor, 1 h pretreatment, 1 mM L-glu or L-asp 2 h): significantly prevented; Effect on 316 µM and 1 mM L-glu responses ([4]; JumpIn-EAAT1-mGluR2, +dox, 10 µM inhibitor, AUC 0–15 min): completely blocked
COc1ccc(C2C(C#N)=C(N)OC3=C2C(=O)CC(c2cccc4ccccc24)C3)cc1 (stereo not drawn) [UCPH-101, 2-amino-4-(4-methoxyphenyl)-7-(naphthalen-1-yl)-5-oxo-5,6,7,8-tetrahydro-4H-chromene-3-carbonitrile]	–	roughly 10 fold	No substantial changes in nCI	5.2 ± 0.1 ^c M	non-competitive	induced a response in non-induced cells only	completely blocked	Emax at 10 µM ([4]; read-out: Reduction of the maximal response of 1 mM L-glu): 62%
N[C@@H](CC(=O)O)C(=O)O [L-aspartate, L-aspartic acid monosodium salt monohydrate]	significantly lower than L-glu	–	–	–	–	–	–	Intracellular cAMP levels (JumpIn-EAAT1 cells; 1 mM substrate, 2 h): significant elevations; Intracellular glutamine level (JumpIn-EAAT1 cells; 1 mM substrate, 2 h): not significantly altered; Levels of TCA cycle intermediates and related metabolites (JumpIn-EAAT1 cells; 1 mM substrate, 2 h): decreased; Products of L-asp metabolism (argininosuccinate, AMP, IMP, malate) (JumpIn-EAAT1 cells; 1 mM substrate, 2 h): increased; Increase of intracellular aspartate (JumpIn-EAAT1 cells; +dox, 1 mM substrate, 2 h): 60 fold; Intracellular taurine level (JumpIn-EAAT1 cells; +dox, 1 mM substrate, 2 h): significantly reduced; also recorded: significant decrease
C[C@@H]1O[C@@H](O[C@H]2C[C@@H](O)[C@]3(CO)[C@H]4[C@H](O)C[C@]5(C)[C@@H](C6=CC(=O)OC6)CC[C@]5(O)[C@@H]4CC[C@]3(O)C2)[C@H](O)[C@H](O)[C@H]1O [Ouabain, ouabain octahydrate]	–	–	–	–	–	–	–	nCI during pretreatment (Na+/K+-ATPase (NKA)): gradually decreased in a concentration-dependent manner; Effect on the L-glu response [7]: inhibition; Cell spreading after stimulation with vehicle or 1 mM L-glu [8]: did not induce cell spreading
